In ChEMBL document CHEMBL4229404, “Druggability Assessment of Targets Used in Kinetic Target-Guided Synthesis” (J Med Chem, 2018):

What was measured:
Carbonic anhydrase 2 = Carbonic anhydrase 2 (Homo sapiens, UniProt P00918); experiment: Inhibition of CA2 (unknown origin)
[1] = molecular target: HTH-type transcriptional regulator EthR (Mycobacterium tuberculosis, UniProt P9WMC1); experiment: Inhibition of Mycobacterium tuberculosis EthR
Homo sapiens = species on record: Homo sapiens; experiment: Inhibition of human recombinant 14-3-3 protein at 300 uM after 8 hrs
Acetylcholinesterase = Acetylcholinesterase (Electrophorus electricus, UniProt O42275)
Acetylcholinesterase, sequence (O42275 whole entry): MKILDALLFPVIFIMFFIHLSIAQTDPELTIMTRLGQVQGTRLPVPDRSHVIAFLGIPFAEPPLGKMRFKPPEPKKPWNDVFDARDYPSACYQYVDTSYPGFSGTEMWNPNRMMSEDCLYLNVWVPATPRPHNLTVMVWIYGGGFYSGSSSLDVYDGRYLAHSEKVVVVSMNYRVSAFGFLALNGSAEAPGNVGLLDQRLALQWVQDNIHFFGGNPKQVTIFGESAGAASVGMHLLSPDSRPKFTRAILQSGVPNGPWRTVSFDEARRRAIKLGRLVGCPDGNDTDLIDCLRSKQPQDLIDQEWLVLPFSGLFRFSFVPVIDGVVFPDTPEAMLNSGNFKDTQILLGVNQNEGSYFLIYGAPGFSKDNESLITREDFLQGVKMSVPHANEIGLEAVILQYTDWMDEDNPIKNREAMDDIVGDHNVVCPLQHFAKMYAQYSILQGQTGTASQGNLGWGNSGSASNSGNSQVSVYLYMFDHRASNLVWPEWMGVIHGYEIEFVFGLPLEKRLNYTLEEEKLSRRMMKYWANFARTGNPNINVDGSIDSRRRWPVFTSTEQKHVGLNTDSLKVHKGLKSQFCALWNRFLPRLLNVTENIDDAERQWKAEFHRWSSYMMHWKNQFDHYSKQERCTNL
Description: Binding affinity to electric eel AChE after 24 hrs by LC/MS-SIM analysis

Chitinase B = molecular target: T1, Chitinase B (Serratia marcescens, UniProt P11797); experiment: Inhibition of Serratia marcescens 6x-His-tagged ChiB after 20 hrs by LCMS-SIR analysis
T1 sequence (P11797 whole entry): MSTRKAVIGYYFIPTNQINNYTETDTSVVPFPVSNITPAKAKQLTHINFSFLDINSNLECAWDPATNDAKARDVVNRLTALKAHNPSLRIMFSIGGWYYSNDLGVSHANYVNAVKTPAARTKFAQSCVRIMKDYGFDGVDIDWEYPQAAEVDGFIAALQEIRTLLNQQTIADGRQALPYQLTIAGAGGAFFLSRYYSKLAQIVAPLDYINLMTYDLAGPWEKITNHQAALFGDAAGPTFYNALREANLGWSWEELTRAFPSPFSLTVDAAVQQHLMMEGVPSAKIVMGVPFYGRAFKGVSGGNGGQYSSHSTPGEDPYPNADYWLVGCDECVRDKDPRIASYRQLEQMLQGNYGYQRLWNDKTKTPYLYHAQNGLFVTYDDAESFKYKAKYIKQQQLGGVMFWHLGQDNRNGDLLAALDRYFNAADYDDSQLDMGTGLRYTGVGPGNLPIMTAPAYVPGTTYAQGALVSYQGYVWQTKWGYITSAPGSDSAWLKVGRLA

[2] = molecular target: T2, Bifunctional ligase/repressor BirA (Staphylococcus aureus, UniProt A0A0E7NXW5); experiment: Inhibition of Staphylococcus aureus biotin protein ligase by LC/MS-SIM analysis
T2 sequence (A0A0E7NXW5 whole entry): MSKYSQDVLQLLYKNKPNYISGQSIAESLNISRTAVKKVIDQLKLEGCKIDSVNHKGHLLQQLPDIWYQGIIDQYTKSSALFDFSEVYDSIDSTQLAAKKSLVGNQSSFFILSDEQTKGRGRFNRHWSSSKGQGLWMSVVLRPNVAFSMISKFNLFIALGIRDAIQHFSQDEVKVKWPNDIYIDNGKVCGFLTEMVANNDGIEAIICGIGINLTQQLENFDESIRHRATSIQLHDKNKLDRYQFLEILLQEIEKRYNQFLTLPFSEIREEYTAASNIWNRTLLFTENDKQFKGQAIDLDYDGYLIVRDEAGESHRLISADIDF

HTH-type transcriptional regulator EthR, sequence (P9WMC1 whole entry): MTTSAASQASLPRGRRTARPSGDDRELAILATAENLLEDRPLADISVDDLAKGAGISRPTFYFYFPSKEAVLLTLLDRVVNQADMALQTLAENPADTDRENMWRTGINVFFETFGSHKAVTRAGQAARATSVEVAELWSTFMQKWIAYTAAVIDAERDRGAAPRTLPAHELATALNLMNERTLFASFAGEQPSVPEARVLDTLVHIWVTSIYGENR

## CCOC(=O)c1cccc(CSCc2ccc(S(N)(=O)=O)cc2)c1
Carbonic anhydrase 2
  IC50: 59 nM

## O=C(Cn1cc(CNS(=O)(=O)c2ccc(I)cc2)nn1)N1CCC(c2nc(-c3cccs3)no2)CC1
[1]
  IC50: 580 nM

## C=CC(C)(C)OC[C@H]1O[C@H](O[C@@H]2C3=C([C@H](C)CNC(=O)[C@H]4CO4)C[C@H](O)[C@]3(C)/C=C3/[C@@H](COC)CC[C@@]3(C)[C@@H](C)[C@H]2O)[C@H](O)[C@@H](O)[C@@H]1O
Homo sapiens
  inhibition: 37%

## CC[N+](C)(CC)CCC[n+]1c(-c2ccccc2)c2cc(N)ccc2c2ccccc21
Acetylcholinesterase
  Kd: 1100 nM

## [H]/N=C(/NCCC[C@H](NC(=O)Cn1nncc1CO/N=C/c1ccnc2ccccc12)C(=O)N(Cc1ccccc1)Cc1ccccc1)NC(=O)NC
Chitinase B
  IC50: 22 nM

## Nc1ncnc2c1ncn2CCCCn1cc(CCCCC[C@@H]2SC[C@@H]3NC(=O)N[C@@H]32)nn1
[2]
  Ki: 660 nM
